# US20050070480A1, “Peptide arginals and methods for treating disseminated intravascular coagulation” (priority 2001, published 2005)
# Like-named read-outs stand apart in the source and are kept apart here.
# Tests used:
# [1] = test system: citrated human plasma (exogenous thrombin); experiment: Thrombin time (TT) plasma clotting assay; type: biochemical; details: thrombin 2.5 NIH U/ml
# Method: (§1) The inhibitory effect on plasma coagulation was evaluated in the thrombin time (TT), activated partial thromboplastin time (APTT) and prothrombin time (PT) assays by using citrated human plasma as substrate [Bagdy, D. et. al.: Thromb. Haemostas. 67, 325 (1992)]. The TT assay measures the inhibition of a single step, the coagulation of fibrinogen on the action of exogenous thrombin (final concentration 2.5 NIH U/ml). Clotting of plasma in the APTT and PT assays was induced by recalcification. Endogenous thrombin generated could theoretically be present at a final concentration as high as 50 NIH U/ml (APTT, PT). These assays detect the sum of inhibitory actions on fibrin formation and thrombin generation, which includes several proteolytic reactions mediated by either thrombin or other enzymes, e.g. fXa. Anticlotting activity is expressed in CT2, which is the concentration (nM) required to double the clotting time.
# citrated human plasma [2] = experiment: Activated partial thromboplastin time (APTT) plasma clotting assay; type: biochemical
# Method: as §1
# citrated human plasma [3] = experiment: Prothrombin time (PT) plasma clotting assay; type: biochemical
# Method: as §1
# clot-bound thrombin = clot-bound thrombin (Homo sapiens, UniProt P00734); experiment: Enzyme inhibition in platelet-rich plasma clots, chromogenic substrate Tos-Gly-Pro-Arg-pNA; type: biochemical; details: for IC50: clot-bound thrombin, platelet-rich plasma clot
# Method: (§2) Tos-Gly-Pro-Arg-pNA (S1) for thrombin and Moc-D-Chg-Gly-Arg-pNA (S2) for factor Xa, as published (Bajusz, S. et al.: PCT Pub. No. WO97/46576) briefly. The assays were carried out at room temperature in glass tubes and 96-well microtiter plates.
# (§3) Solutions, (i) Buffer A: 0.1 M sodium phosphate/0.05 M NaCl (pH 8.5). (ii) Inhibitors: 0.1, 1.0 and 10 mg/ml solutions in buffer A containing 0.02% human albumin. (iii) Substrates: 1 mM of S1 and 2 mM of S2 in distilled water.
# (§4) (b) Preparation of plasma clots. Platelet rich plasma samples (200 μl) placed in glass tubes were incubated at room temperature with 80 μl 40 mM CaCl2 for 60 min. The clots were washed with 2 ml aliquots of saline (0.9% NaCl) with gentle agitation to remove unbound enzymes In case of successful washing the optical density of the reaction mixture of wash and S1 is less than 5% of the control. The plasma clot thus obtained was kept under saline in the tube until use.
# (§5) (c) Assessment of the enzyme inhibition in the clots. After removal of saline, the plasma clot was incubated at 37° C. with 400 μl inhibitor (or buffer A as negative control) for 5 min. and with 100 μl substrate S1 or S3 for 30 min., then the reaction was stopped with 100 μl 50% acetic acid. 150 μl portions of the reaction mixtures were placed in the wells of a microtiter plate and read at 405 nm (ELISA READER 800, Bio-Tek Instruments Inc. Winooski, Vt., USA). IC50 values were generated from the extinction data graphically.
# clot-bound factor Xa = clot-bound factor Xa (Homo sapiens, UniProt P00742); experiment: Enzyme inhibition in platelet-rich plasma clots, chromogenic substrate Moc-D-Chg-Gly-Arg-pNA; type: biochemical
# Sequence of clot-bound factor Xa (P00742 235-488 limits assumed): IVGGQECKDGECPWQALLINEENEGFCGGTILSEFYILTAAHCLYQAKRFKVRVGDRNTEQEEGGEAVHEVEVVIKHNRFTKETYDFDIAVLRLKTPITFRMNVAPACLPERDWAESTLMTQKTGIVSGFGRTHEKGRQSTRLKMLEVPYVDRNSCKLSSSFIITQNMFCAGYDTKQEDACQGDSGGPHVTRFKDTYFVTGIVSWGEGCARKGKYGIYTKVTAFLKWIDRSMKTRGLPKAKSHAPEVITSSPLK
# Sequence of clot-bound factor Xa (P00742 41-179 limits assumed): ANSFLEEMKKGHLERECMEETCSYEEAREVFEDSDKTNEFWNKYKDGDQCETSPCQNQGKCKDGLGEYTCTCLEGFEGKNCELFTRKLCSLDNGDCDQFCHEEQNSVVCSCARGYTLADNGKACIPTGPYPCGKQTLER
# Method: as §2, §3, §4, §5
# plasmin (PL) = plasmin (PL) (Homo sapiens, UniProt P00747); experiment: Fibrin plate assay, plasmin; type: biochemical; details: reduction of lysed area to 50% of control, read-out: LA50 PL
# Sequence of plasmin (PL) (P00747 581-810 limits assumed, species assumed): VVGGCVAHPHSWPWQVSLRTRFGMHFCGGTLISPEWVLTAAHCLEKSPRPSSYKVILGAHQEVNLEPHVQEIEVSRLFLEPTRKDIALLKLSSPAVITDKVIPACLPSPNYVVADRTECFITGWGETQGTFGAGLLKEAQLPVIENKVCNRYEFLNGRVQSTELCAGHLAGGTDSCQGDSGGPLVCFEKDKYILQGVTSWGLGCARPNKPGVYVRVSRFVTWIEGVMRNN
# Sequence of plasmin (PL) (P00747 97-580 limits assumed, species assumed): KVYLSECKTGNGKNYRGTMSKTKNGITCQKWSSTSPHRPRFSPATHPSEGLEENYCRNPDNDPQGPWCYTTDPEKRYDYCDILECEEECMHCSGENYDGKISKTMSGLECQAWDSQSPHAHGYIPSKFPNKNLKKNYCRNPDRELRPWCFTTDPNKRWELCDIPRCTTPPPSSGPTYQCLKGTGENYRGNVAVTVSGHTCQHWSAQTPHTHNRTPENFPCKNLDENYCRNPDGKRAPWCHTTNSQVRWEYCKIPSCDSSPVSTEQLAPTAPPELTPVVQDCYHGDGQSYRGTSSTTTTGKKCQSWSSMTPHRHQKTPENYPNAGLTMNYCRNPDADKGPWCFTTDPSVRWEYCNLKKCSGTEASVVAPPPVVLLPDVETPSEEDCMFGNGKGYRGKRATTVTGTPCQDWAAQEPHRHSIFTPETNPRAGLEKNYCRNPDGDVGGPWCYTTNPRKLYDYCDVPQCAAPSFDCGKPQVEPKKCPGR
# Source text: (§6) Inhibitory effects of the compounds of the invention on plasmin (PL) and plasmin generation by plasminogen (Plogen) activators, such as tissue plasminogen activator (tPA), and urokinase (UK) were examined by the fibrin plate assay. (See e.g., Bagdy, D., Barabás, E., Bajusz, S., and Széll, E., Thromb. Haemostas., 67:325-330 (1992); Barabás, E. Szell, E. and Bajusz, S, Blood Coagulation and Fibrinolysis, 4: 243 (1993)) The results are shown in Table 1, Column C. With a few exceptions the analogues are somewhat more inhibitory than Efegatran against the three fibrinolytic enzymes.
# [4] = biological target: tissue plasminogen activator (tPA) (Homo sapiens, UniProt P00750); experiment: Fibrin plate assay, tissue plasminogen activator; type: biochemical; details: reduction of lysed area to 50% of control, read-out: LA50 tPA
# Sequence of tissue plasminogen activator (tPA) (P00750 36-562, species assumed): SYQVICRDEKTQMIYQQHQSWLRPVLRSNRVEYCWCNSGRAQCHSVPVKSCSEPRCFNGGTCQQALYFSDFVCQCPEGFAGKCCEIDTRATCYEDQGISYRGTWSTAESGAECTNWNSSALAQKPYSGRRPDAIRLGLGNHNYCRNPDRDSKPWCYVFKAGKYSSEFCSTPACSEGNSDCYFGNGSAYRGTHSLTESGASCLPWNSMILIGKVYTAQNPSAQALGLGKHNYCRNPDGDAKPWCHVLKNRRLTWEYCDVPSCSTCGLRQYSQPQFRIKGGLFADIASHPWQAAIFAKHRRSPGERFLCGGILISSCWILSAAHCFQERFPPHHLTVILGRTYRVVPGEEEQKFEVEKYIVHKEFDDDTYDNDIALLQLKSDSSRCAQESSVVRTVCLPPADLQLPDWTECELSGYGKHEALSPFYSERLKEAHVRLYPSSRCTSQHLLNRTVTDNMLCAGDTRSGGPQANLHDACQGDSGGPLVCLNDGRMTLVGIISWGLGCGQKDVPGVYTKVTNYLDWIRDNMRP
# Source text: as §6
# urokinase (UK) = urokinase (UK) (Homo sapiens, UniProt P00749); experiment: Fibrin plate assay, urokinase; type: biochemical; details: for IC50: reduction of lysed area to 50% of control, urokinase, read-out: LA50 UK
# Source text: as §6
# [5] = test system: endotoxin-treated rabbits; type: in vivo, rabbit
# LPS-treated rats = experiment: Survival in a rat model for disseminated intravascular coagulation; type: in vivo; details: for Effectiveness on survival compared with reference C (in words): LPS-treated rats; for Survival rate %: rats, 30 mg/kg LPS i.v.
# endotoxin-treated rats = experiment: Rat model for disseminated intravascular coagulation (fibrin deposition, platelet count, FDP)
# Method: The effects of compound 1 of the invention and two control anticoagulants, Efegatran (C) and heparin (H) on such phenomena were examined in endotoxin-treated rats [Ford, A. J. and Longridge, D. J.: Br. J. Pharmacol. 110, Suppl.
# Male rats were treated with an i.v. bolus injection of 10 mg/kg endotoxin. It was followed by i.v. infusion of saline or the test compounds for four hours. Of compounds 1 and 3, 0.25 mg/kg was given as an initial bolus injection followed by an 0.25 mg/kg/h i.v. infusion for four hours. Heparin (H) was applied similarly, 50 IU/kg as an initial bolus injection followed by an 50 IU/kg/h i.v. infusion for four hours. Control group of animals was treated with 0.9% saline.
# The deposition of ^125I-fibrin was investigated in selected organs (liver and kidney. ^125I-fibrinogen was injected 30 min. prior to endotoxin injection. The radioactivities in the tissue samples were measured in a gamma counter (Wallac Wizard 1470). Microthrombi formation in the organs was assessed using the ratio of organ ^125I activity to injected total ^125I activity, defined as the microthrombi index. Changes in this parameter are expressed in percent compared to saline group.
# Number of platelet count was determined in an automatic appliance (Sysmex F-800) and related to control values.
# Determination of FDP (fibrin degradation products) by Aggristin (Ristocetin) precipitation assay. […]
# [6] = endotoxin-treated rabbits, 0.25 mg/kg/h infusion, 2 hrs
# [7] = endotoxin-treated rabbits, 0.25 mg/kg/h infusion, 4 hrs
# [8] = endotoxin-treated rabbits, 0.5 mg/kg/h infusion, 2 hrs
# [9] = endotoxin-treated rabbits, 0.5 mg/kg/h infusion, 4 hrs
# [10] = 0.75 mg/kg bolus + infusion, 0 hours
# [11] = 0.75 mg/kg bolus + infusion, 4 hours
# [12] = 0.75 mg/kg bolus + infusion, 5 hours
# [13] = 0.75 mg/kg bolus + infusion, 6 hours
# [14] = 0.75 mg/kg bolus + infusion, 7 hours
# [15] = 0.75 mg/kg bolus + infusion, 8 hours
# [16] = 1.5 mg/kg bolus + infusion, 0 hours
# [17] = 1.5 mg/kg bolus + infusion, 4 hours
# [18] = 1.5 mg/kg bolus + infusion, 5 hours
# [19] = 1.5 mg/kg bolus + infusion, 6 hours
# [20] = 1.5 mg/kg bolus + infusion, 7 hours
# [21] = 1.5 mg/kg bolus + infusion, 8 hours
SMILES,CT2 TT (concentration required for doubling the clotting time) [1] [nM],CT2 APTT (concentration required for doubling the clotting time) (citrated human plasma [2]) [nM],CT2 PT (concentration required for doubling the clotting time) (citrated human plasma [3]) [nM],Inhibition of clot-bound thrombin compared with Efegatran (in words) (clot-bound thrombin),IC50 (clot-bound thrombin) [µM],IC50 (clot-bound factor Xa) [µM],IC50 (plasmin (PL)) [µM],IC50 [4] [µM],IC50 (urokinase (UK)) [µM],Effectiveness on survival compared with reference C (in words) (LPS-treated rats),Survival rate % (LPS-treated rats; [10]) [%],Survival rate % (LPS-treated rats; [11]) [%],Survival rate % (LPS-treated rats; [12]) [%],Survival rate % (LPS-treated rats; [13]) [%],Survival rate % (LPS-treated rats; [14]) [%],Survival rate % (LPS-treated rats; [15]) [%],Survival rate % (LPS-treated rats; [16]) [%],Survival rate % (LPS-treated rats; [17]) [%],Survival rate % (LPS-treated rats; [18]) [%],Survival rate % (LPS-treated rats; [19]) [%],further results
"CCOC(=O)N[C@H](CC1CCCCCC1)C(=O)N1CCC[C@H]1C(=O)N[C@H](C=O)CCCNC(=N)N [Compound 1, ethoxycarbonyl-D-cycloheptylalanyl-L-prolyl-L-arginine aldehyde]",147,331,1839,surpass Efegatran,0.103,0.118,18,10,14,more effective than reference C,100,100,100,100,90,70,100,100,100,100,"Effect on lethality of endotoxin-treated rabbits (in words) ([5]; compared with endotoxin alone): significantly reduce the lethality; Lethality %, 2 hrs [5, 6]: 0%; Lethality no. died/treated animals, 2 hrs [5, 6]: 0/19; Lethality %, 4 hrs [5, 7]: 16%; Lethality no. died/treated animals, 4 hrs [5, 7]: 3/19; Lethality %, 2 hrs [5, 8]: 0%; Lethality no. died/treated animals, 2 hrs [5, 8]: 0/12; Lethality %, 4 hrs [5, 9]: 17%; Lethality no. died/treated animals, 4 hrs [5, 9]: 2/12; Survival rate % (LPS-treated rats; 1.0 mg/kg bolus + infusion, 0 hours): 100%; Survival rate % (LPS-treated rats; 1.0 mg/kg bolus + infusion, 4 hours): 100%; Survival rate % (LPS-treated rats; 1.0 mg/kg bolus + infusion, 5 hours): 100%; Survival rate % (LPS-treated rats; 1.0 mg/kg bolus + infusion, 6 hours): 100%; Survival rate % (LPS-treated rats; 1.0 mg/kg bolus + infusion, 7 hours): 90%; Survival rate % (LPS-treated rats; 1.0 mg/kg bolus + infusion, 8 hours): 90%; Survival rate % (LPS-treated rats; [20]): 100%; Survival rate % (LPS-treated rats; [21]): 100%; DIC-inhibiting potential (in words) (endotoxin-treated rats): more pronounced than that of either heparin or Efegatran"
"N=C(N)NCCC[C@@H](C=O)NC(=O)[C@@H]1CCCN1C(=O)[C@H](O)CC1CCCCCC1 [Compound 3, D-cycloheptyllactyl-L-prolyl-L-arginine aldehyde]",86,281,1082,surpass Efegatran,0.095,0.117,21,10,85,more effective than reference C,100,100,100,100,100,92,100,100,100,100,"Activity against UK compared with Efegatran (in words) (urokinase (UK)): almost equiactive with Efegatran; Effect on lethality of endotoxin-treated rabbits (in words) ([5]; rabbit, in vivo): significantly reduce the lethality; Lethality %, 2 hrs ([5]; rabbit, in vivo, 0.25 mg/kg): 0%; Lethality %, 4 hrs ([5]; rabbit, in vivo, 0.25 mg/kg): 18%; Lethality no. died/treated animals, 2 hrs ([5]; rabbit, in vivo, 0.25 mg/kg): 0/22; Lethality no. died/treated animals, 4 hrs ([5]; rabbit, in vivo, 0.25 mg/kg): 4/22; Survival rate % (LPS-treated rats; 0.5 mg/kg bolus + infusion, 0 hours): 100%; Survival rate % (LPS-treated rats; 0.5 mg/kg bolus + infusion, 4 hours): 100%; Survival rate % (LPS-treated rats; 0.5 mg/kg bolus + infusion, 5 hours): 100%; Survival rate % (LPS-treated rats; 0.5 mg/kg bolus + infusion, 6 hours): 100%; Survival rate % (LPS-treated rats; 0.5 mg/kg bolus + infusion, 7 hours): 100%; Survival rate % (LPS-treated rats; 0.5 mg/kg bolus + infusion, 8 hours): 80%; Survival rate % (LPS-treated rats; [20]): 100%; Survival rate % (LPS-treated rats; [21]): 92%"
